In paper PMC8581430, “Peptide ligands targeting FGF receptors promote recovery from dorsal root crush injury via AKT/mTOR signaling” (Theranostics, 2021):

System: primary DRG neurons
Assay: TUNEL assay of DRG neuron apoptosis induced by H2O2
Type: cell-based, Sprague-Dawley rat
Details: CH02 + inhibitor 24 h, then H2O2 12 h, n = 5
Experimental: Figure 3 Effect of the CH02 peptide on axon growth and neuron survival. (A) Representative images of the CH02 peptide effect on axon growth in adult primary DRG neurons. DRG neurons were obtained from adult Sprague-Dawley rats. After 12-h of culture, neurons were stimulated with CH02 or bFGF for 48 h. Axonal outgrowth was assessed by immunocytochemistry using an antibody against β-tubulin, an axonal marker. Images were acquired from random neurons by fluorescence microscopy. Scale bars = 50 μm. (B) Quantification of the longest axon length of each neuron randomly selected in three independent experiments from (A), using Image-Pro Plus 6.0 software (n = 48 for each condition; *p < 0.05, ****p < 0.0001 by one-way ANOVA with Dunnett's test; ns, not significant; mean ± SD). […] The axon is shown in fluorescence (β3-tubulin) images. […] (D) Quantification of axon growth of DRG explants from (C) using the Neurite-J software (n=4 for each condition; *control vs. CH02; #control vs. bFGF; *p < 0.05, **p < 0.01, ***p < 0.001, #p < 0.05, ##p < 0.01 by two-way ANOVA with Dunnett's test; ns, not significant; mean ± SEM). […] LDH released from damaged cell membranes was detected by an LDH assay kit. The results are expressed as the mean ± SEM (**p < 0.01 by one-way ANOVA with Dunnett's test; ns, not significant, compared with the control group). […] Apoptotic neurons were detected by a TUNEL apoptosis assay kit. […]

N#CC(=C(/N)Sc1ccccc1N)/C(C#N)=C(/N)Sc1ccccc1N [U0126]
effect of inhibitor on protective effect of CH02 against H2O2-induced apoptosis: significantly reduced the protective effect of CH02 on neurons from apoptosis induced by H2O2
